# Reference: publication PMC4556275 (Drug metabolism and pharmacokinetics, 2010)
# How the values were obtained:
# [1] = Metabolic stability in pooled human liver microsomes; type: in vitro ADME; settings: for CLint (microsomal): 1 μM substrate, 0.5 mg/mL HLM protein, 37°C; for ER (extraction ratio) / Hepatic CL: well-stirred model, Q 1400 mL/min, fu assumed 1
# [2] = Metabolite profiling in HLM incubations by MRM-IDA-EPI; type: in vitro ADME, human; settings: HLM incubation, MRM-IDA-EPI method
CLint (microsomal) [1],ER (extraction ratio) [1],Hepatic CL [1],number of metabolites formed and detected [2],Structure (SMILES)
22.0 μl/min/mg microsomal protein,0.43,607.9 mL/min,–,"O=C(N1CCCCC1)N1CC(=O)N2CCc3ccccc3C2C1 (stereo not drawn) [PZ07, 2-piperidinylcarbonyl-1,2,3,6,7,11b-hexa-hydro-4H-pyrazino(2,1-α)isoquinoline-4-one]"
16.2 μl/min/mg microsomal protein,0.36,505.5 mL/min,Eight,"O=C(N1CCC(F)(F)CC1)N1CC(=O)N2CCc3ccccc3C2C1 (stereo not drawn) [PZ10, 2-(4,4-difluoropiperidinyl)carbonyl-1,2,3,6,7,11b-hexa-hydro-4H-pyrazino(2,1-α)isoquinoline-4-one]"
22.8 μl/min/mg microsomal protein,0.44,620.2 mL/min,Nine,"O=C(C1CCC(F)(F)CC1)N1CC(=O)N2CCc3ccccc3C2C1 (stereo not drawn) [PZ02, 2-(4,4-difluorocyclohexyl)carbonyl-1,2,3,6,7,11b-hexahydro-4H-pyrazino(2,1-α)isoquinoline-4-one]"
